Test results reported in patent US9567302B2, “Carbamate compounds and of making and using same” (Abide Therapeutics, Inc., priority 2012, dated 2017).

Experiments:
Assay type in all cases: biochemical
Set-up in all cases: from tissue; host or cells: mouse brain membrane fraction
Conditions in all cases: Table 2, mouse proteome, 30 min preincubation at 37° C.
MAGL = molecular target: T1, MAGL (Mus musculus, UniProt O35678); assay: In vitro competitive activity-based protein profiling (FP-Rh), mouse MAGL
T1 sequence (O35678 1-303): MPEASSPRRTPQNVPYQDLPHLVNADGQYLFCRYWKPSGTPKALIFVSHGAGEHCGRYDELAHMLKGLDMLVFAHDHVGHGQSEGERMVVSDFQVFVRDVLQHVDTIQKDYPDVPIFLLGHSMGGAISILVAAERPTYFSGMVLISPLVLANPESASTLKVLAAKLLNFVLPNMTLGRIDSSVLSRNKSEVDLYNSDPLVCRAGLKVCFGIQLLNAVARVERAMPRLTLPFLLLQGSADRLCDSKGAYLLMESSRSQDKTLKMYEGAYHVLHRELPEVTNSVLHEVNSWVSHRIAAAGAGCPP
Protocol: (§1) In Vitro Competitive Activity-Based Protein Profiling.
(§2) Proteomes (mouse brain membrane fraction or cell lysates) (50 μL, 1.0 mg/ml total protein concentration) were preincubated with varying concentrations of inhibitors at 37° C. After 30 min, FP-Rh (1.0 μL, 50 μM in DMSO) was added and the mixture was incubated for another 30 min at 37° C. Reactions were quenched with SDS loading buffer (50 μL—4×) and run on SDS-PAGE.

FAAH = molecular target: T2, FAAH (Mus musculus, UniProt O08914); assay: In vitro competitive activity-based protein profiling (FP-Rh), mouse FAAH
T2 sequence (O08914 1-579): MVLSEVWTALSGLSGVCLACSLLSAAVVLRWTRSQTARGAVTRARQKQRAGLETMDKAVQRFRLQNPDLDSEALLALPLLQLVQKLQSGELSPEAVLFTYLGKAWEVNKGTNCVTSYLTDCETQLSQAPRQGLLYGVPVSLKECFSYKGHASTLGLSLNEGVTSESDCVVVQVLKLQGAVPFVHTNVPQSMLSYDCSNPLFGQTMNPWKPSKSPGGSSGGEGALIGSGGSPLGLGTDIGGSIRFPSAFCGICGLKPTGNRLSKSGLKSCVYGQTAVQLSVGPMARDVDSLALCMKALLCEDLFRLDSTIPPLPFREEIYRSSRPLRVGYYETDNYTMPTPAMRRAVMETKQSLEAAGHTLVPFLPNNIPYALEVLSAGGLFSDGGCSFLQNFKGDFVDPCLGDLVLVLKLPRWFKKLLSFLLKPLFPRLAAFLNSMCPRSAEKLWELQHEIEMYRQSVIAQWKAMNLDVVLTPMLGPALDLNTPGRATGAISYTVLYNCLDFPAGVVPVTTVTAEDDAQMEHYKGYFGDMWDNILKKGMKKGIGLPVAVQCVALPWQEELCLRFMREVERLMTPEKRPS
Protocol: as §1, §2

ABHD6 = molecular target: T3, ABHD6 (Mus musculus, UniProt Q8R2Y0); assay: In vitro competitive activity-based protein profiling (FP-Rh), mouse ABHD6
T3 sequence (Q8R2Y0 1-336): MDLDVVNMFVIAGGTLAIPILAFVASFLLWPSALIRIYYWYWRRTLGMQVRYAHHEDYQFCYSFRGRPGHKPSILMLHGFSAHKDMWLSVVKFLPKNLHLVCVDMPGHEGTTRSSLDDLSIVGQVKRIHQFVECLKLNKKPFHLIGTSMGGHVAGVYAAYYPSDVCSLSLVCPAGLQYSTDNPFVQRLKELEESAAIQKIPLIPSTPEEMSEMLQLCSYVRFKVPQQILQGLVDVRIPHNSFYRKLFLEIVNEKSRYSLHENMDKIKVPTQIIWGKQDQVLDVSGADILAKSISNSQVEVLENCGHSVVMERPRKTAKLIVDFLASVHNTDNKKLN
Protocol: as §1, §2

## O=C(ON1C(=O)CCC1=O)N1CCN(Cc2ccc(C(F)(F)F)cc2N2CCOCC2)CC1 [Example 91, 2,5-Dioxopyrrolidin-1-yl 4-{[2-(morpholin-4-yl)-4-(trifluoromethyl)phenyl]methyl}piperazine-1-carboxylate]
MAGL
  IC50: < 100 nM
FAAH
  IC50: > 10000 nM
ABHD6
  IC50: 100 to 1000 nM

## O=C(ON1C(=O)CCC1=O)N1CCN(Cc2cc(Cl)ccc2N2CCOCC2)CC1 [Example 92, 2,5-Dioxopyrrolidin-1-yl 4-{[5-chloro-2-(morpholin-4-yl)phenyl]methyl}piperazine-1-carboxylate]
MAGL
  IC50: 100 to 1000 nM
FAAH
  IC50: > 10000 nM
ABHD6
  IC50: 1000 to 10000 nM

## O=C(ON1C(=O)CCC1=O)N1CCN(Cc2cccc(F)c2N2CCOCC2)CC1 [Example 93, 2,5-dioxopyrrolidin-1-yl 4-{[3-fluoro-2-(morpholin-4-yl)phenyl]methyl}piperazine-1-carboxylate]
MAGL
  IC50: 100 to 1000 nM
FAAH
  IC50: > 10000 nM
ABHD6
  IC50: > 10000 nM

## O=C(ON1C(=O)CCC1=O)N1CCN(Cc2ccc(N3CCOCC3)cc2Cl)CC1 [Example 94, 2,5-Dioxopyrrolidin-1-yl 4-(2-chloro-4-morpholinobenzyl)piperazine-1-carboxylate]
MAGL
  IC50: 1000 to 10000 nM
FAAH
  IC50: > 10000 nM
ABHD6
  IC50: 1000 to 10000 nM

## O=C(ON1C(=O)CCC1=O)N1CCN(Cc2ccc(Cl)cc2-n2cc(Cl)cn2)CC1 [Example 95, 2,5-Dioxopyrrolidin-1-yl 4-(4-chloro-2-(4-chloro-1H-pyrazol-1-yl)benzyl)piperazine-1-carboxylate]
MAGL
  IC50: < 100 nM
FAAH
  IC50: > 10000 nM
ABHD6
  IC50: 100 to 1000 nM

## O=C(ON1C(=O)CCC1=O)N1CCN(Cc2c(Cl)cccc2N2CCCC2)CC1 [Example 97, 2,5-Dioxopyrrolidin-1-yl 4-{[2-chloro-6-(pyrrolidin-1-yl)phenyl]methyl}piperazine-1-carboxylate]
MAGL
  IC50: 1000 to 10000 nM
FAAH
  IC50: > 10000 nM
ABHD6
  IC50: 100 to 1000 nM

## O=C(ON1C(=O)CCC1=O)N1CCN(Cc2cc(Cl)ccc2N2CCCC2)CC1 [Example 98, 2,5-Dioxopyrrolidin-1-yl 4-{[5-chloro-2-(pyrrolidin-1-yl)phenyl]methyl}piperazine-1-carboxylate]
MAGL
  IC50: < 100 nM
FAAH
  IC50: > 10000 nM
ABHD6
  IC50: 100 to 1000 nM

## O=C(ON1C(=O)CCC1=O)N1CCN(Cc2ccc(N3CCOCC3)c(Cl)c2)CC1 [Example 101, 2,5-dioxopyrrolidin-1-yl 4-(3-chloro-4-morpholinobenzyl)piperazine-1-carboxylate]
MAGL
  IC50: 1000 to 10000 nM
FAAH
  IC50: > 10000 nM
ABHD6
  IC50: 100 to 1000 nM

## O=C(ON1C(=O)CCC1=O)N1CCN(Cc2ccc(N3CCCC3)cc2OC(F)(F)F)CC1 [Example 104, 2,5-Dioxopyrrolidin-1-yl 4-{[4-(pyrrolidin-1-yl)-2-(trifluoromethoxy)phenyl]methyl}piperazine-1-carboxylate]
MAGL
  IC50: 100 to 1000 nM
FAAH
  IC50: > 10000 nM
ABHD6
  IC50: 100 to 1000 nM

## O=C(ON1C(=O)CCC1=O)N1CCN(Cc2cccc(Cl)c2N2CCCC2)CC1 [Example 106, 2,5-Dioxopyrrolidin-1-yl 4-{[3-chloro-2-(pyrrolidin-1-yl)phenyl]methyl}piperazine-1-carboxylate]
MAGL
  IC50: < 100 nM
FAAH
  IC50: > 10000 nM
ABHD6
  IC50: 1000 to 10000 nM

## O=C(ON1C(=O)CCC1=O)N1CCN(Cc2cccc(F)c2N2CCCC2)CC1 [Example 107, 2,5-Dioxopyrrolidin-1-yl 4-{[3-fluoro-2-(pyrrolidin-1-yl)phenyl]methyl}piperazine-1-carboxylate]
MAGL
  IC50: < 100 nM
FAAH
  IC50: > 10000 nM
ABHD6
  IC50: 100 to 1000 nM

## O=C(ON1C(=O)CCC1=O)N1CCN(Cc2ccc(-n3cccn3)c(F)c2)CC1 [Example 108, 2,5-Dioxopyrrolidin-1-yl 4-(3-fluoro-4-(1H-pyrazol-1-yl)benzyl)piperazine-1-carboxylate]
MAGL
  IC50: 1000 to 10000 nM
FAAH
  IC50: > 10000 nM
ABHD6
  IC50: 1000 to 10000 nM

## O=C(ON1C(=O)CCC1=O)N1CCN(Cc2ccc(Cl)cc2N2CCC3(CCOCC3)C2)CC1 [Example 109, 2,5-Dioxopyrrolidin-1-yl 4-[(4-chloro-2-{8-oxa-2-azaspiro[4.5]decan-2-yl}phenyl)methyl]piperazine-1-carboxylate]
MAGL
  IC50: < 100 nM
FAAH
  IC50: > 10000 nM
ABHD6
  IC50: 1000 to 10000 nM

## O=C(ON1C(=O)CCC1=O)N1CCN(Cc2ccc(Cl)cc2N2Cc3cccnc3C2)CC1 [Example 114, 2,5-Dioxopyrrolidin-1-yl 4-[(4-chloro-2-{5H,6H,7H-pyrrolo[3,4-b]pyridin-6-yl}phenyl)methyl]piperazine-1-carboxylate]
MAGL
  IC50: < 100 nM
FAAH
  IC50: > 10000 nM
ABHD6
  IC50: 100 to 1000 nM

## CC(=O)N1CCN(c2cc(Cl)ccc2CN2CCN(C(=O)ON3C(=O)CCC3=O)CC2)CC1 [Example 115, 2,5-Dioxopyrrolidin-1-yl 4-{[2-(4-acetylpiperazin-1-yl)-4-chlorophenyl]methyl}piperazine-1-carboxylate]
MAGL
  IC50: 100 to 1000 nM
FAAH
  IC50: > 10000 nM
ABHD6
  IC50: 1000 to 10000 nM

## COC(=O)c1cc(CN2CCN(C(=O)ON3C(=O)CCC3=O)CC2)ccc1N1CCOCC1 [Example 118, 2,5-Dioxopyrrolidin-1-yl 4-(3-(methoxycarbonyl)-4-morpholinobenzyl)piperazine-1-carboxylate]
MAGL
  IC50: 1000 to 10000 nM
FAAH
  IC50: > 10000 nM
ABHD6
  IC50: 1000 to 10000 nM

## Cc1c(CN2CCN(C(=O)ON3C(=O)CCC3=O)CC2)cccc1N1CCOCC1 [Example 121, 2,5-Dioxopyrrolidin-1-yl 4-(2-methyl-3-morpholinobenzyl)piperazine-1-carboxylate]
MAGL
  IC50: < 100 nM
FAAH
  IC50: > 10000 nM
ABHD6
  IC50: 100 to 1000 nM

## Cc1c(CN2CCN(C(=O)ON3C(=O)CCC3=O)CC2)cccc1N1CCCC1 [Example 123, 2,5-Dioxopyrrolidin-1-yl 4-(2-methyl-3-(pyrrolidin-1-yl)benzyl)piperazine-1-carboxylate]
MAGL
  IC50: < 100 nM
FAAH
  IC50: > 10000 nM
ABHD6
  IC50: 100 to 1000 nM

## O=C(ON1C(=O)CCC1=O)N1CCN(Cc2ccc(F)c(N3CCCC3)c2)CC1 [Example 124, 2,5-Dioxopyrrolidin-1-yl 4-(4-fluoro-3-(pyrrolidin-1-yl)benzyl)piperazine-1-carboxylate]
MAGL
  IC50: < 100 nM
FAAH
  IC50: > 10000 nM
ABHD6
  IC50: 100 to 1000 nM

## O=C(ON1C(=O)CCC1=O)N1CCN(Cc2ccc(Cl)cc2N2CCCCC2)CC1 [Example 129, 2,5-Dioxopyrrolidin-1-yl 4-(4-chloro-2-(piperidin-1-yl)benzyl)piperazine-1-carboxylate]
MAGL
  IC50: < 100 nM
FAAH
  IC50: > 10000 nM
ABHD6
  IC50: 100 to 1000 nM

## O=C(ON1C(=O)CCC1=O)N1CCN(Cc2ccc(Cl)cc2N2CC3CCC(C2)O3)CC1 [Example 130, 2,5-Dioxopyrrolidin-1-yl 4-(2-(8-oxa-3-azabicyclo[3.2.1]octan-3-yl)-4-chlorobenzyl)piperazine-1-carboxylate]
MAGL
  IC50: < 100 nM
FAAH
  IC50: > 10000 nM
ABHD6
  IC50: 1000 to 10000 nM

## O=C(ON1C(=O)CCC1=O)N1CCN(Cc2ccc(Cl)cc2N2CCOC3CCCC32)CC1 (stereo not drawn) [Example 131, 2,5-Dioxopyrrolidin-1-yl 4-(4-chloro-2-(hexahydrocyclopenta[b][1,4]oxazin-4(4aH)-yl)benzyl)piperazine-1-carboxylate]
MAGL
  IC50: < 100 nM
FAAH
  IC50: > 10000 nM
ABHD6
  IC50: 1000 to 10000 nM

## O=C(ON1C(=O)CCC1=O)N1CCN(Cc2cc(Cl)cc(N3CCCCC3)c2)CC1 [Example 132, 2,5-Dioxopyrrolidin-1-yl 4-(3-chloro-5-(piperidin-1-yl)benzyl)piperazine-1-carboxylate]
MAGL
  IC50: < 100 nM
FAAH
  IC50: > 10000 nM
ABHD6
  IC50: 100 to 1000 nM

## O=C(ON1C(=O)CCC1=O)N1CCN(Cc2cccc(N3CCCCC3)c2)CC1 [Example 133, 2,5-Dioxopyrrolidin-1-yl 4-(3-(piperidin-1-yl)benzyl)piperazine-1-carboxylate]
MAGL
  IC50: < 100 nM
FAAH
  IC50: > 10000 nM
ABHD6
  IC50: < 100 nM
